Test results: US8518973B2, “Compounds having 4-pyridylalkylthio group as a substituent” (Santen Pharmaceutical Co., Ltd., priority 2003, dated 2013)

Assays:
[1] = test system: rat adjuvant arthritis model; experiment: Paw edema inhibitory action test using rat adjuvant arthritis model; assay type: in vivo; details: po, 504 h; Lewis rat, adjuvant-untreated (secondary inflammation) paw, 10 mg/kg/day orally once a day, 21 days after, average of eight rats; read-out: Paw edema inhibition rate (%)
Procedure: Paw edema inhibitory action tests of the present compounds were carried out using a rat adjuvant arthritis model, which is one of widely-used methods of evaluating in vivo antiarthritis effects of drugs.
As one of widely-used methods of evaluating antiarthritic effects of drugs, a paw edema inhibitory action test using rat adjuvant arthritis models is known. Paw edema inhibitory action tests of the present compounds were carried out, their paw edema inhibition rates were calculated, and antiarthritic effects of the present compounds were evaluated using the obtained rates as indexes.
A 1% aqueous methyl cellulose solution was added to each test compound to suspend it thereby to prepare a 2 mg/ml test compound suspension.
Liquid paraffin was added to Mycobacterium-butyricum to suspend it to prepare 6 mg/ml adjuvant.
Each paw edema inhibition rate of paw edema in an adjuvant-untreated paw (secondary inflammation paw) in each test compound administration group was calculated to paw edema in a secondary inflammation paw in a control group, and antiarthritic effects of the present compounds were evaluated using the obtained rates as indexes.
Paw edema rates were calculated from the following calculation equation 1, and then paw edema inhibition rates (the average of eight rats per group), which are indexes of the antiarthritic effects, were calculated from the calculation equation 2.

B16 cells = experiment: Tumor growth inhibitory action test using mouse cancer model (B16 cells); assay type: in vivo; details: po, 240 h; C57BL/6 mouse, B16 cells intradermally, 100 mg/kg/day orally once a day, ten days after injection, average of nine mice; read-out: Tumor tissue weight inhibition rate (%)
Procedure: Tumor proliferation inhibitory action tests of the present compounds were carried out using a mouse cancer model, which is one of widely-used methods of evaluating in vivo anticancer effects of drugs.
(§1) As one of widely-used methods of evaluating anticancer effects of drugs, a tumor growth inhibitory action test using mouse cancer models was reported in Cancer Res., 59, 5209-5218(1999). According to the method described in the above-mentioned literature, tumor growth inhibitory action tests of the present compounds were carried out, their tumor tissue weight inhibition rates were calculated, and anticancer effects of the present compounds were evaluated using the obtained rates as indexes.
A 1% aqueous methyl cellulose solution was added to each test compound to suspend it with a sonicator thereby to prepare a 10 mg/ml test compound suspension.
Physiological saline was added to B16 cells to prepare a 3.3×10^7 cells/ml B16 cell suspension.
Calculation of Tumor Tissue Weight Inhibition Rate
Tumor tissue weight inhibition rates (the average of nine mice per group), which are indexes of anticancer effects were calculated, from the following calculation equation.

[2] = test system: VEGF-induced HUVEC growth; experiment: VEGF-induced HUVEC growth reaction evaluation system (cell growth inhibitory action test); assay type: cell-based; details: Homo sapiens, 72 h, 20 μg/ml test compound solution added 5 μl per well (100 μl), VEGF solution 400 ng/ml 5 μl per well, three days, absorbance at 450 nm, read-out: Cell growth inhibition rate (%)
Procedure: Cell growth inhibitory action tests were carried out using a VEGF-induced HUVEC growth reaction evaluation system (HUVEC stands for human umbilical vein endothelial cells), which is one of widely-used methods of evaluating in vitro angiogenesis inhibitory effects of drugs.
as §1, with “angiogenesis inhibitory” for “anticancer”, “cell” for “tumor”, “a VEGF-induced HUVEC growth reaction evaluation system” for “mouse cancer models”, “99-106(1999).” for “5209-5218(1999).”, “cell growth” for “tumor tissue weight”
Each test compound was dissolved in dimethyl sulfoxide (hereinafter abbreviated as “DMSO”), and the obtained solution was diluted with commercially available phosphoric acid buffer solution (hereinafter abbreviated as “PBS”) to prepare a 20 μg/ml test compound solution.
HUVEC was suspended in a 0.5% fetal bovine serum (hereinafter abbreviated as “FBS”)-containing F12K medium to prepare a 2×10^4 cells/ml HUVEC suspension.
VEGF was dissolved in 0.1% bovine serum albumin-containing PBS, and the obtained solution was diluted with the 0.5% FBS-containing F12K medium to prepare a 400 ng/ml VEGF solution.
• 1) The HUVEC suspension was inoculated in each amount of 100 μl into each well of a 96-well plate coated with I type collagen (2×10^3 cells per well). • 2) One day after inoculation, the test compound solution was added in an amount of 5 μl per well. • 3) One hour after adding the test compound solution, the VEGF solution was added in an amount of 5 μl per well. • 4) Three days after adding the VEGF solution, cell counting kit-8(Dojin Chemical Co., Ltd.) was added in an amount of 10 μl per well. • 5) After three hours, the above-mentioned plate was attached to an absorptiometer (multi label counter ARVO), and absorbance at 450 nm of each well suspension (hereinafter referred to as “test compound suspension”) was measured. • 6) A test was carried out in the same manner as in 1) to 5) except that 1.0% DMSO was used instead of the test compound solution.
Incubation was carried out under conditions of 37° C., 5% carbon dioxide and 95% air in an incubator throughout the above-mentioned test steps.
Cell growth inhibition rates, which are indexes of angiogenesis inhibitory effects, were calculated by the following calculation equation.

[3] = test system: rat choroidal neovascularization model; experiment: Neovascularization incidence test using laser-induced rat choroidal neovascularization model; assay type: in vivo; details: po, 168 h; Brown Norway rat, krypton laser photocoagulation, 30 mg/kg/day orally once a day for seven days, ratio to vehicle administration group, average of three to four individuals and six to eight eyes; read-out: Ratio of neovascularization incidence rate (% of Control)
Procedure: Neovascularization incidence tests of the present compounds were carried out using a rat choroidal neovascularization model, which is one of widely-used methods of evaluating in vivo choroidal neovascularization inhibitory effects of drugs.
As one of widely-used methods of evaluating choroidal neovascularization inhibitory effects of drugs, a neovascularization incidence test using rat choroidal neovascularization models was reported in Graefe's Arch. Cli. Exp. Ophthalmol., 235, 313-319(1997). According to the method described in the above-mentioned literature, neovascularization incidence tests of the present compounds were carried out, ratios of neovascularization incidence rates of present compounds administration groups were calculated to a neovascularization incidence rate of vehicle administration group (control group), and choroidal neovascularization inhibitory effects of the present compounds were evaluated using the obtained ratios as indexes.
A 1% aqueous methyl cellulose solution was added to each test compound to suspend it thereby to prepare a 6 mg/10 ml test compound suspension.
• 1) A 7:1 mixed solution (1 ml/kg) of a 5% ketamine hydrochloride injection and a 2% xylazine hydrochloride injection was administered intramuscularly to rats (Brown Norway, male, eight weeks old, weight: 200 to 250 g) to anesthetize them systemically. • 2) A tropicamide-phenylephrine hydrochloride ophthalmic solution (trade name: Mydrin-P) was instilled into eyes to cause mydriasis, and then photocoagulation was performed in a Bruch's membrane of each rat using a krypton laser photocoagulation apparatus. The laser irradiation was carried out at eight spots per eye sparsely avoiding thick retinal vessels in a posterior section of ocular fundus and focusing on the retinal deep site. Photocoagulation conditions were adjusted to 100 μm of spot size, […] of output and 0.1 sec. of coagulation time. • 3) After the photocoagulation, the ocular fundus was photographed to confirm photocoagulation (laser irradiation) sites. […] Method of Evaluation • 1) Seven days after the photocoagulation, 0.1 ml of a 10% aqueous fluorescein solution was injected into a tail vein of the rat, and fluorescein fundus photography was performed. • 2) Next, in the fluorescein fundus photography, a spot where fluorescence leak was not observed was judged as negative, and a spot where fluorescence leak was observed was judged as positive. Photocoagulation sites where a little fluorescence leak was observed were judged as positive when two sites are present. • 3) Neovascularization incidence rates were calculated according to the calculation equation 1. Ratios of the neovascularization incidence rates of the test compound administration groups to that of the vehicle administration group were calculated according to the calculation equation 2 from neovascularization incidence rates of respective administration groups.
The values are the average of three to four individuals and six to eight eyes.

## O=C(Nc1ccc(SC(F)(F)F)cc1)c1cccnc1SCc1ccncc1 [1-158, 2-(4-Pyridylmethylthio)-N-(4-trifluoromethylthiophenyl)pyridine-3-carboxamide]
[1]
  inhibition in vivo at 10 mg/kg/day: 22%
B16 cells
  inhibition in vivo at 100 mg/kg/day: 76%
[2]
  inhibition at 20 µg/mL (stock): 100%

## O=C(Nc1cc2ccccc2cn1)c1cccnc1SCc1ccncc1 [1-22, N-(3-Isoquinolyl)-2-(4-pyridylmethylthio)pyridine-3-carboxamide]
[1]
  inhibition in vivo at 10 mg/kg/day: 27%
B16 cells
  inhibition in vivo at 100 mg/kg/day: 45%
[2]
  inhibition at 20 µg/mL (stock): 100%

## O=C(Nc1ccc2[nH]ncc2c1)c1cccnc1SCc1ccncc1 [1-23, N-(Indazol-5-yl)-2-(4-pyridylmethylthio)pyridine-3-carboxamide]
[3]
  response vs control in vivo at 30 mg/kg/day: 26%
B16 cells
  inhibition in vivo at 100 mg/kg/day: 57%
[2]
  inhibition at 20 µg/mL (stock): 100%

## O=C(Nc1ccc2c(c1)CCC2)c1cccnc1SCc1cc[n+]([O-])cc1 [4-8, N-(5-Indanyl)-2-(1-oxopyridin-4-ylmethylthio)pyridine-3-carboxamide]
B16 cells
  inhibition in vivo at 100 mg/kg/day: 80%
[2]
  inhibition at 20 µg/mL (stock): 98%

## O=C(Nc1ccc2cn[nH]c2c1)c1cccnc1SCc1ccncc1 [1-296, N-(Indazol-6-yl)-2-(4-pyridylmethylthio)pyridine-3-carboxamide]
[3]
  response vs control in vivo at 30 mg/kg/day: 24%
B16 cells
  inhibition in vivo at 100 mg/kg/day: 71%
[2]
  inhibition at 20 µg/mL (stock): 100%

## O=C(Nc1ccc2c(c1)CCC2)c1cccnc1SCc1ccncc1 [1-136, N-(5-Indanyl)-2-(4-pyridylmethylthio)pyridine-3-carboxamide]
[3]
  response vs control in vivo at 30 mg/kg/day: 38%
B16 cells
  inhibition in vivo at 100 mg/kg/day: 53%
[2]
  inhibition at 20 µg/mL (stock): 100%

## CC(C)(C)c1ccc(NC(=O)c2cccnc2SCc2ccncc2)cc1 [1-51, N-(4-tert-Butylphenyl)-2-(4-pyridylmethylthio)pyridine-3-carboxamide]
B16 cells
  inhibition in vivo at 100 mg/kg/day: 59%
[2]
  inhibition at 20 µg/mL (stock): 98%

## O=C(Nc1ccc(OC(F)(F)F)cc1)c1cccnc1SCc1cc[n+]([O-])cc1 [4-9, 2-(1-Oxopyridin-4-ylmethylthio)-N-(4-trifluoromethoxyphenyl)pyridine-3-carboxamide]
B16 cells
  inhibition in vivo at 100 mg/kg/day: 77%
[2]
  inhibition at 20 µg/mL (stock): 100%

## O=C(Nc1ccc2ncccc2c1)c1cccnc1SCc1ccncc1 [1-21, 2-(4-Pyridylmethylthio)-N-(6-quinolyl)pyridine-3-carboxamide]
[3]
  response vs control in vivo at 30 mg/kg/day: 15%
B16 cells
  inhibition in vivo at 100 mg/kg/day: 65%
[2]
  inhibition at 20 µg/mL (stock): 99%

## Cc1cc(C)cc(NC(=O)c2cccnc2SCc2ccnc(Br)c2)c1 [1-230, 2-(2-Bromopyridin-4-ylmethylthio)-N-(3,5-dimethylphenyl)pyridine-3-carboxamide]
B16 cells
  inhibition in vivo at 100 mg/kg/day: 66%
[2]
  inhibition at 20 µg/mL (stock): 100%

## O=C(Nc1ccc(OC(F)(F)F)c(Cl)c1)c1cccnc1SCc1cc[n+]([O-])cc1 [4-11, N-(3-Chloro-4-trifluoromethoxyphenyl)-2-(1-oxopyridin-4-ylmethylthio)-pyridine-3-carboxamide]
B16 cells
  inhibition in vivo at 100 mg/kg/day: 62%
[2]
  inhibition at 20 µg/mL (stock): 100%

## Cc1cc(C)cc(NC(=O)c2cccnc2SCc2cc[n+]([O-])cc2)c1 [4-4, N-(3,5-Dimethylphenyl)-2-(1-oxopyridin-4-ylmethylthio)pyridine-3-carboxamide]
[3]
  response vs control in vivo at 30 mg/kg/day: 26%
[1]
  inhibition in vivo at 10 mg/kg/day: 21%
B16 cells
  inhibition in vivo at 100 mg/kg/day: 77%
[2]
  inhibition at 20 µg/mL (stock): 100%

## Cc1cc(NC(=O)c2ccccc2SCc2ccncc2)ccc1Cl [1-99, N-(4-Chloro-3-methylphenyl)-2-(4-pyridylmethylthio)benzamide]
B16 cells
  inhibition in vivo at 100 mg/kg/day: 64%
[2]
  inhibition at 20 µg/mL (stock): 100%

## O=C(Nc1ccc(OC(F)(F)F)c(Cl)c1)c1cccnc1SCc1ccncc1 [1-137, N-(3-Chloro-4-trifluoromethoxyphenyl)-2-(4-pyridylmethylthio)pyridine-3-carboxamide]
[3]
  response vs control in vivo at 30 mg/kg/day: 65%
[1]
  inhibition in vivo at 10 mg/kg/day: 39%
B16 cells
  inhibition in vivo at 100 mg/kg/day: 66%
[2]
  inhibition at 20 µg/mL (stock): 100%
